Structures are written as SMILES. Counter-ions that a name gives are not always drawn.

The test system of the first test is Acinetobacter baumannii ATCC17961. Description: Antimicrobial susceptibility testing: 90% growth inhibitory concentration (IC90) determination in Iso-Sensitest broth, OD600 growth. It counts as cell-based. The note with it: Acinetobacter baumannii, ATCC17961, 16 h, read-out: A. baumannii ATCC 17961 IC90 (uM), strain ATCC 17961, OD600 growth over 16 h. Summed up:
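Growth inhibition is calculated during the logarithmic phase from OD600 readings taken every 20 minutes across 16 h at 35±2° C. Bacteria at ~5×10^(5) CFU/ml face twofold dilution series (e.g. 50 to 0.097 μM final).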
As usually defined, the IC90 is the concentration needed for an effect of 90%. Consider `CCc1cc(Nc2nccn3c(-c4cn(CC#N)nc4C(F)(F)F)cnc23)ccc1C(=O)NCCCNC(=O)[C@@H]1CC[C@H](N)C1` [Example 483, N-(3-((1R,3S)-3-(l2-azaneyl)cyclopentane-1-carboxamido)propyl)-4-((3-(1-(cyanomethyl)-3-(trifluoromethyl)-1H-pyrazol-4-yl)imidazo[1,2-a]pyrazin-8-yl)amino)-2-ethylbenzamide formate], for which the concentration for an effect of 90% (IC90) was found to be 0.194 µM. The same measure, in the same setting: then `N#CCn1cc(-c2cnc3c(Nc4ccc(C(=O)N5CCN(C(=O)[C@H]6CC[C@@H](N)C6)CC5)c(Cl)c4)nccn23)c(C(F)(F)F)n1` [Example 192, 2-[4-[8-[4-[4-[(1S,3R)-3-aminocyclopentanecarbonyl]piperazine-1-carbonyl]-3-chloroanilino]imidazo[1,2-a]pyrazin-3-yl]-3-(trifluoromethyl)pyrazol-1-yl]acetonitrile formate], with 0.208 µM; and `CCc1cc(Nc2nccn3c(-c4cn(CC(F)F)nc4C(F)(F)F)cnc23)ccc1C(=O)N1CC2(CCN2)C1` [Example 564, (4-((3-(1-(2,2-difluoroethyl)-3-(trifluoromethyl)-1H-pyrazol-4-yl)imidazo[1,2-a]pyrazin-8-yl)amino)-2-ethylphenyl)(1,6-diazaspiro[3.3]heptan-6-yl)methanone formate], with 0.58 µM. The same measure, in the same setting: the figure for `CCc1cc(Nc2nccn3c(-c4cn(Cc5cccnc5)nc4C(F)(F)F)cnc23)ccc1C(=O)NCCCNCCCCNCCCN` [Example 7, N-[3-[4-(3-aminopropylamino)butylamino]propyl]-2-ethyl-4-[[3-[1-(pyridin-3-ylmethyl)-3-(trifluoromethyl)pyrazol-4-yl]imidazo[1,2-a]pyrazin-8-yl]amino]benzamide hydrochloride] is 0.782 µM.

On to `CCc1cc(Nc2nccn3c(-c4cn(CC(F)F)nc4C(F)(F)F)cnc23)ccc1C(=O)NCC(=O)N1CCC(CN)C1` (centres unmarked) [Example 527, N-[2-[3-(aminomethyl)pyrrolidin-1-yl]-2-oxo-ethyl]-4-[[3-[1-(2,2-difluoroethyl)-3-(trifluoromethyl)pyrazol-4-yl]imidazo[1,2-a]pyrazin-8-yl]amino]-2-ethyl-benzamide formate], for which the IC90 was determined as 0.306 µM. On the same count and under the same terms, the figure for `Cc1cc(Nc2nccn3c(-c4cn(CC#N)nc4C(F)(F)F)cnc23)ccc1C(=O)N1CCN(C(=O)[C@H]2C[C@H](O)CN2)CC1` [Example 426, formic acid; 2-[4-[8-[4-[4-[(2R,4S)-4-hydroxypyrrolidine-2-carbonyl]piperazine-1-carbonyl]-3-methylanilino]imidazo[1,2-a]pyrazin-3-yl]-3-(trifluoromethyl)pyrazol-1-yl]acetonitrile] is 0.948 µM.

`C[C@@]1(O)CN[C@H](C(=O)N2CCN(C(=O)c3ccc(Nc4nccn5c(-c6c[nH]nc6C(F)(F)F)cnc45)cc3Cl)CC2)C1` [Example 443, [2-chloro-4-[[3-[3-(trifluoromethyl)-1H-pyrazol-4-yl]imidazo[1,2-a]pyrazin-8-yl]amino]phenyl]-[4-[(2S,4S)-4-hydroxy-4-methylpyrrolidine-2-carbonyl]piperazin-1-yl]methanone formate]: the IC90 is 0.81 µM. The same measure, in the same setting: then `N#CCn1cc(-c2cnc3c(Nc4ccc(C(=O)NC5CCC(N)CC5)c(Cl)c4)nccn23)c(C(F)(F)F)n1` (centres unmarked) [Example 199, N-(4-aminocyclohexyl)-2-chloro-4-[[3-[1-(cyanomethyl)-3-(trifluoromethyl)pyrazol-4-yl]imidazo[1,2-a]pyrazin-8-yl]amino]benzamide formate], with 0.336 µM; and `CCc1cc(Nc2nccn3c(-c4cn(CC(F)F)nc4C(F)(F)F)cnc23)ccc1C(=O)NCCNC(=O)CCCN` [Example 537, N-(2-(4-aminobutanamido)ethyl)-4-((3-(1-(2,2-difluoroethyl)-3-(trifluoromethyl)-1H-pyrazol-4-yl)imidazo[1,2-a]pyrazin-8-yl)amino)-2-ethylbenzamide formate], with 0.163 µM. On the same count and under the same terms, the figure for `CCc1cc(Nc2nccn3c(-c4cn(CC(F)F)nc4C(F)(F)F)cnc23)ccc1C(=O)NCC(CN)CCl` (centres unmarked) [Example 558, N-(3-amino-2-(chloromethyl)propyl)-4-((3-(1-(2,2-difluoroethyl)-3-(trifluoromethyl)-1H-pyrazol-4-yl)imidazo[1,2-a]pyrazin-8-yl)amino)-2-ethylbenzamide formate] is 0.174 µM.

The test is the same for the next values; noted with them: Acinetobacter baumannii, ATCC17961, 16 h, strain ATCC 17961, OD600 growth over 16 h, read-out: A. baumannii ATCC 17961 IC90.
For the compound `CCc1cc(Nc2nccn3c(-c4cn(CC(O)C(F)(F)F)nc4C(F)(F)F)cnc23)ccc1C(=O)NCCOCCN` (centres unmarked) [Example 644, N-(2-(2-aminoethoxy)ethyl)-2-ethyl-4-((3-(1-(3,3,3-trifluoro-2-hydroxypropyl)-3-(trifluoromethyl)-1H-pyrazol-4-yl)imidazo [1,2-a]pyrazin-8-yl)amino) benzamide], the concentration for an effect of 90% (IC90) amounted to 0.24 µM. For `Cc1cc(Nc2nccn3c(-c4cn(CC(F)F)nc4C(F)(F)F)cnc23)ccc1C(=O)NCCOCCN` [Example 254, N-[2-(2-aminoethoxy)ethyl]-4-[[3-[1-(2,2-difluoroethyl)-3-(trifluoromethyl)pyrazol-4-yl]imidazo[1,2-a]pyrazin-8-yl]amino]-2-methylbenzamide], the 90% effect concentration (IC90) is 0.222 µM. The same measure, in the same setting: the figure for `O=C(CN1CCN(C(=O)c2ccc(Nc3nccn4c(-c5cn(CC(F)F)nc5C(F)(F)F)cnc34)cc2Cl)CC1)N[C@H]1CCNC1` [Example 600, (S)-2-(4-(2-chloro-4-((3-(1-(2,2-difluoroethyl)-3-(trifluoromethyl)-1H-pyrazol-4-yl)imidazo[1,2-a]pyrazin-8-yl)amino)benzoyl)piperazin-1-yl)-N-(pyrrolidin-3-yl) acetamide formate] is 0.517 µM. Still for that read-out and setting: the figure for `O=C(c1ccc(Nc2nccn3c(-c4cn(CC(F)F)nc4C(F)(F)F)cnc23)cc1Cl)N1CCNCC1` [Example 120, [2-chloro-4-[[3-[1-(2,2-difluoroethyl)-3-(trifluoromethyl)pyrazol-4-yl]imidazo[1,2-a]pyrazin-8-yl]amino]phenyl]-piperazin-1-ylmethanone] is 0.109 µM; for `CCc1cc(Nc2nccn3c(-c4cn(CCF)nc4C(F)(F)F)cnc23)ccc1C(=O)NCCOCCN1CCCC1` [Example 617, 2-ethyl-4-((3-(1-(2-fluoroethyl)-3-(trifluoromethyl)-1H-pyrazol-4-yl)imidazo[1,2-a]pyrazin-8-yl)amino)-N-(2-(2-(pyrrolidin-1-yl)ethoxy)ethyl) benzamide formate] it is 0.125 µM. The same measure, in the same setting: then `Cc1cc(Nc2nccn3c(-c4c[nH]nc4C(F)(F)F)cnc23)ccc1S(C)(=O)=NCCCN` (stereo not drawn) [Example 518, ((3-Aminopropyl)imino)(methyl)(2-methyl-4-((3-(3-(trifluoromethyl)-1H-pyrazol-4-yl)imidazo[1,2-α]pyrazin-8-yl)amino)phenyl)-λ^6-sulfanone], with 0.935 µM. Consider `Cc1cc(Nc2nccn3c(-c4cn(CC#N)nc4C(F)(F)F)cnc23)cc(F)c1C(=O)N[C@H](C)CNC(=O)[C@@H]1C[C@@H](O)CN1` [Example 769, (2S,4R)-N-((R)-2-(4-(3-(1-(cyanomethyl)-3-(trifluoromethyl)-1H-pyrazol-4-yl)imidazo[1,2-a]pyrazin-8-yl)amino)-2-fluoro-6-methylbenzamido)propyl)-4-hydroxypyrrolidine-2-carboxamide formate], for which the 90% effect concentration (IC90) turned out to be 0.928 µM. Same read-out and setting: the figure for `N#CCn1cc(-c2cnc3c(Nc4ccc(C(=O)NCC(=O)N5CCC(N)CC5)c(Cl)c4)nccn23)c(C(F)(F)F)n1` [Example 502, N-[2-(4-amino-1-piperidyl)-2-oxo-ethyl]-2-chloro-4-[[3-[1-(cyanomethyl)-3-(trifluoromethyl)pyrazol-4-yl]imidazo[1,2-a]pyrazin-8-yl]amino]benzamide formate] is 0.233 µM. Still for that read-out and setting: the figure for `CCc1cc(Nc2nccn3c(-c4cn(CC(N)=O)nc4C(F)(F)F)cnc23)ccc1C(=O)NC` [Example 339, 4-[[3-[1-(2-amino-2-oxoethyl)-3-(trifluoromethyl)pyrazol-4-yl]imidazo[1,2-a]pyrazin-8-yl]amino]-2-ethyl-N-methylbenzamide] is 2.49 µM; for `CCc1cc(Nc2nccn3c(-c4cn(CC(F)F)nc4C(F)(F)F)cnc23)ccc1C(=O)N[C@H](C)CN` [Example 107, N-[(2R)-1-aminopropan-2-yl]-4-[[3-[1-(2,2-difluoroethyl)-3-(trifluoromethyl)pyrazol-4-yl]imidazo[1,2-a]pyrazin-8-yl]amino]-2-ethylbenzamide] it is 0.239 µM. On the same count and under the same terms, the figure for `Cc1cc(Nc2nccn3c(-c4cn(CC(F)F)nc4C(F)(F)F)cnc23)cc(F)c1C(=O)N1CCN(C(=O)[C@H]2[C@@H]3CNC[C@@H]32)CC1` [Example 692, (4-((1R,5S,6r)-3-azabicyclo[3.1.0]hexane-6-carbonyl)piperazin-1-yl)(4-((3-(1-(2,2-difluoroethyl)-3-(trifluoromethyl)-1H-pyrazol-4-yl)imidazo[1,2-a]pyrazin-8-yl)amino)-2-fluoro-6-methylphenyl)methanone] is 0.356 µM.

Staying with this test, now noted: strain ATCC 17961, OD600 growth over 16 h, read-out: A. baumannii ATCC 17961 IC90.
Take `C=CCn1cc(-c2cnc3c(Nc4ccc(C(=O)N[C@H](C)CNC(=O)OC(C)(C)C)c(CC)c4)nccn23)c(C(F)(F)F)n1` [Example 129, tert-butyl N-[(2R)-2-[[2-ethyl-4-[[3-[1-prop-2-enyl-3-(trifluoromethyl)pyrazol-4-yl]imidazo[1,2-a]pyrazin-8-yl]amino]benzoyl]amino]propyl] carbamate]: the IC90 came to 1.06 µM.

Turning to `C[C@H](O)CNC(=O)c1ccc(Nc2nccn3c(-c4cn(CC#N)nc4C(F)(F)F)cnc23)cc1Cl` [Example 240, 2-chloro-4-[[3-[1-(cyanomethyl)-3-(trifluoromethyl)pyrazol-4-yl]imidazo[1,2-a]pyrazin-8-yl]amino]-N-[(2S)-2-hydroxypropyl] benzamide], the 90% effect concentration (IC90) was 0.253 µM.

Values taken from US20230203043A1, “NOVEL IMIDAZOPYRAZINE DERIVATIVES” (Hoffmann-La Roche Inc., priority 2020, published 2023).
